Laboratory results published in paper PMC8480782, “Efficient Dimerization Disruption of Leishmania infantum Trypanothione Reductase by Triazole-phenyl-thiazoles” (Journal of Medicinal Chemistry, 2021).
Where two headings read alike, the source gives them in different places.

Key:
LiTryR dimer = biological target: T1, LiTryR dimer (Leishmania infantum, UniProt A4HSF7); assay: biochemical; details: 400 nM LiTryR, 16 h at 37 °C; read-out: IC50^dim, LiTryR monomer displacement (dimer quantitation ELISA)
T1 construct: made in house; host or cells: E. coli BL21 (DE3) Rossetta (co-transformed with both plasmids)
Procedure: The stability of the LiTryR dimeric form in the presence of 1,2,3-triazole-phenyl-thiazole-based compounds was evaluated using the novel enzyme-linked immunosorbent assay (ELISA) developed in our laboratory.[25] […] Next, the different solutions were centrifuged at 18 000g for 15 min at room temperature. The supernatants (200 μL/well) were added to the α-FLAG-coated plates (Sigma-Aldrich, St. Louis, MO) and incubated for 30 min at 37 °C with agitation in a humid atmosphere. The plates were washed five times with TTBS buffer (2 mM Tris, pH 7.6, 138 mM NaCl, and 0.1% Tween-20) and incubated with diluted monoclonal α-HIS horseradish peroxidase (HRP)-conjugated antibody (200 μL, 1:50 000, Abcam, Cambridge, U.K.) in fatty acid- and essentially globulin-free bovine serum albumin (BSA) (5%) prepared in TTBS buffer for 1 h at room temperature. The plates were washed five times, and o-phenylenediamine dihydrochloride (OPD) substrate prepared according to the manufacturer’s instructions was added. The enzymatic reaction was stopped after 5 min with H2SO4 (100 μL, […]), and the absorbances were measured at 490 nm in an EnSpire Multimode Plate Reader (PerkinElmer, Waltham, MA). All of the assays were conducted in triplicate in at least three independent experiments. Data were analyzed using a nonlinear regression model with GraFit 6 software (Erithacus, Horley, Surrey, U.K.).

LiTryR = biological target: T2, LiTryR (Leishmania infantum, UniProt A4HSF7); assay: biochemical; type: biochemical; details: LiTryR; 1 μM TS2; maximum assayed 75 μM; read-out: IC50^act, TryR oxidoreductase activity
T2 construct: HIS (N); made in house; host or cells: E. coli BL21 (DE3) Rossetta
Procedure: A concentration of 1 μM TS2 was used for this initial screening. This low substrate concentration is sufficient for comparison of compound inhibitory activity in the oxidoreductase assay.
Recombinant L. infantum TryR (LiTryR) HIS-tagged and HIS-FLAG-tagged versions were used for all LiTryR oxidoreductase activity and dimer quantitation assays. These LiTryR versions were purified from Escherichia coli as previously described.[25] Briefly, pRSETA-HIS-LiTryR construct alone or in combination with the pET24a-FLAG-LiTryR construct was transformed into BL21 (DE3) Rossetta E. coli strain. An overnight E. coli culture grown at 37 °C in Luria–Bertani (LB) medium with the appropriate antibiotics and vigorous shaking was diluted (1:100) in the same medium and allowed to grow in the same conditions until the OD600 was 0.5. Then, LiTryR expression was induced by addition of 1 mM isopropyl-β-D-1-thiogalactopyranoside (IPTG) for 16 h at 26 °C. The cells were centrifuged for 5 min at 9000g and 4 °C and the wet pellet resuspended in lysis buffer (50 mM Tris, pH 7, 300 mM NaCl, 25 mM imidazole, protease inhibitor cocktail, and 1 mg/mL lysozyme). […] The supernatant was sonicated again as previously described for 10 min and loaded on a HisTrap column (GE Healthcare, Chicago, IL) for 16 h at 4 °C using a P-1 peristaltic pump (GE Healthcare, Chicago, IL). Once loaded, the HisTrap column was connected to an ÄKTA purifier UPC 10 (GE Healthcare, Chicago, IL) and washed using a 5–10% gradient between buffer A (50 mM Tris, pH 7 and 300 mM NaCl) and B (50 mM Tris, pH 7, 300 mM NaCl, and 500 mM imidazole). LiTryR was eluted using a 40% gradient between buffers A and B. Fractions containing recombinant LiTryR were pooled and loaded into a HiPrep 26/10 Desalting column (GE Healthcare, Chicago, IL) previously equilibrated with buffer A. Finally, LiTryR was concentrated to 2 mg/mL using an Amicon Ultra-15 50K (Merck Millipore, Burlington, MA) and an equal volume of glycerol was added before storing at −20 °C.
TryR oxidoreductase activity was determined spectrophotometrically using a modified version of the DTNB-coupled assay described by Hamilton et al.[52] Briefly, reactions were carried out at 26 °C in 250 μL of N-(2-hydroxyethyl)piperazine-N′-ethanesulfonic acid (HEPES) buffer (pH 7.5, 40 mM) containing ethylenediaminetetraacetic acid (EDTA) (1 mM), NADP^+ (30 μM), DTNB (25 μM), TS2 (1 μM), NADPH (150 μM), glycerol (0.02%), DMSO (1.75%), and recombinant TryR (7 nM). […] Reactions were started by addition of a mixture of NADPH and TS2.
TryR oxidoreductase activity was monitored at 26 °C by an increase in absorbance at 412 nm in an EnSpire Multimode Plate Reader (PerkinElmer, Waltham, MA). […] (TNB) concentration was obtained by multiplying the absorbance values by 100 (50 μM TNB generates 0.5 arbitrary units of absorbance at 412 nm). In this DTNB-coupled assay, one molecule of T(SH)2 reduces one molecule of DTNB, producing two TNB molecules. All of the assays were conducted in at least three independent experiments. Data were analyzed using a nonlinear regression model with GraFit 6 software (Erithacus, Horley, Surrey, U.K.).

[1] = system: L. infantum axenic amastigotes; assay: Leishmanicidal activity on axenic amastigotes (PI exclusion, flow cytometry); type: cell-based, Leishmania infantum; details: for SIa (ratio of EC50 against human cells to EC50 against amastigotes): HepG2 / axenic amastigotes; for EC50: Leishmania infantum, axenic amastigotes, 24 h at 37 °C, read-out: EC50 amastigotes
Procedure: (§1) L. infantum promastigotes (MCAN/ES/89/IPZ229/1/89) were grown in Roswell Park Memorial Institute (RPMI)-1640 medium (Sigma-Aldrich, St. Louis, MO) supplemented with 10% heat-inactivated fetal calf serum (FCS), antibiotics, and 25 mM HEPES (pH 7.2) at 26 °C. L. infantum axenic amastigotes (MCAN/ES/89/IPZ229/1/89) were grown in M199 medium (Invitrogen, Leiden, The Netherlands) supplemented with 10% heat-inactivated FCS, 1 g/L β-alanine, 100 mg/L L-asparagine, 200 mg/L sucrose, 50 mg/L sodium pyruvate, 320 mg/L malic acid, 40 mg/L fumaric acid, 70 mg/L succinic acid, 200 mg/L α-ketoglutaric acid, 300 mg/L citric acid, 1.1 g/L sodium bicarbonate, 5 g/L morpholineethanesulfonic acid (MES), 0.4 mg/L hemin, and 10 mg/L gentamicine, pH 5.4, at 37 °C.
Axenization was performed by diluting 0.5 mL of a 7-day stationary phase culture of L. infantum promastigotes (2–3 × 10^7 parasites/mL) in 4.5 mL of amastigotes medium and incubating the culture at 37 °C for 2 or 3 days. L. infantum axenic amastigotes apparition was followed by phase-contrast microscopy using an Eclipse Ti inverted microscope (Nikon, Tokyo, Japan).
(§2) Drug treatment of L. infantum promastigotes was performed during the logarithmic growth phase at a concentration of 2 × 10^6 parasites/mL at 26 °C for 24 h. […] EC50 was evaluated by flow cytometry by the propidium iodide (PI) exclusion method. After selection of the parasite population based on their forward scatter (FSC) and side scatter (SSC) values, live and dead parasite cells were identified by their permeability to PI. All of the assays were conducted in triplicate in at least three independent experiments. Data were analyzed using a nonlinear regression model with GraFit 6 software (Erithacus, Horley, Surrey, U.K.).

[2] = system: L. infantum promastigotes; assay: Leishmanicidal activity on promastigotes (PI exclusion, flow cytometry); type: cell-based, Leishmania infantum; details: for EC50: Leishmania infantum; for SIp (ratio of EC50 against human cells to EC50 against promastigotes): HepG2 / promastigotes
Procedure: as §1, §2

HepG2 cells = assay: Cellular toxicity, crystal violet assay; type: cell-based; details: Homo sapiens, HepG2; 24 h, crystal violet method; read-out: EC50 HepG2
Procedure: Liver hepatocellular carcinoma HepG2 cells were grown in Dulbecco’s modified Eagle’s medium (DMEM) (Sigma-Aldrich, St. Louis, MO) with 10% heat-inactivated FCS, antibiotics, and 10 mM HEPES.
Drug treatment of liver hepatocellular carcinoma HepG2 cells was performed at a concentration of 10^5 cells/mL at 37 °C and 5% CO2 for 24 h. EC50 was evaluated by the crystal violet assay. Briefly, cells were washed with phosphate-buffered saline (PBS) and stained with 200 μL of crystal violet solution (0.2% crystal violet, 2% ethanol) for 10 min at room temperature. Next, the plates were washed twice with tap water and allowed to dry. The stained cells were solubilized with 400 μL of 1% sodium dodecyl sulfate (SDS), and the color intensity was quantified at 570 nm using an EnSpire Multimode Plate Reader (PerkinElmer, Waltham, MA). All of the assays were conducted in triplicate in at least three independent experiments. Data were analyzed using a nonlinear regression model with GraFit 6 software (Erithacus, Horley, Surrey, U.K.).

[3] = 24 h at 26 °C, read-out: EC50 promastigotes
[4] = promastigotes or amastigotes (either form), read-out: EC50 against Leishmania promastigotes or amastigotes

T1 sequence (A4HSF7 1-491): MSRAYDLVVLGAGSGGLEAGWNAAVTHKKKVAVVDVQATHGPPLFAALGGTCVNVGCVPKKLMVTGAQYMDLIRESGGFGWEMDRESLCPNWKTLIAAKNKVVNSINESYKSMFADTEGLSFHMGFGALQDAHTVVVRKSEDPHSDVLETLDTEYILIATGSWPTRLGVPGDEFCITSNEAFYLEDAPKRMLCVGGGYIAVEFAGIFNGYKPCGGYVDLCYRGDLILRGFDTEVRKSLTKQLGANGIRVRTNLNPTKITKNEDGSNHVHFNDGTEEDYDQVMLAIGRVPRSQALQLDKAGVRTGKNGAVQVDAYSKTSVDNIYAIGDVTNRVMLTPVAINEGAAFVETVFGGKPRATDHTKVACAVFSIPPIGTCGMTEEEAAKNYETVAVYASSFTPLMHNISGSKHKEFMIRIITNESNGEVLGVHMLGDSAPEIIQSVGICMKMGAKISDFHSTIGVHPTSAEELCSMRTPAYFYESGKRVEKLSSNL
T2 sequence (A4HSF7 1-491): as above

Compound	IC50 (LiTryR dimer) [µM]	IC50 (LiTryR) [µM]	SIa (ratio of EC50 against human cells to EC50 against amastigotes) [1]	EC50 [1] [µM]	EC50 [2, 3] [µM]	EC50 (HepG2 cells) [µM]	SIp (ratio of EC50 against human cells to EC50 against promastigotes) [2]	EC50 [2, 4] [µM]
CCCCc1cn(-c2ccc(-c3nc(CCc4ccccc4)cs3)c(OCCN3CCNC3=O)c2)nn1 [12e]	> 75	> 75						
COc1cc(-n2cc(CCCCN)nn2)ccc1-c1nc(CCc2ccccc2)cs1.O=C(O)C(F)(F)F [12j]	> 75	20.1 ± 2.5	1.7	7.1 ± 0.7	8.5 ± 0.1	12.4 ± 0.7		
CC(C)Oc1csc(-c2ccc(-n3cc(CCCCN)nn3)cc2OCCN2CCNC2=O)n1 [12l]	> 75	54.5 ± 4.4						
O=C1NCCN1CCOc1cc(-n2cc(CCCCO)nn2)ccc1-c1nc(CCc2ccccc2)cs1 [12d]	> 75	> 75						
O=C1NCCN1CCOc1cc(Br)ccc1-c1nc(CCc2ccccc2)cs1 [compound 13]	> 75	> 75						
NCCCc1cn(-c2ccc(-c3nc(CCc4ccccc4)cs3)c(OCCN3CCNC3=O)c2)nn1.O=C(O)C(F)(F)F [12h]	> 75	20.8 ± 2.3	< 1	31.6 ± 5.8	12.7 ± 0.3	25.7 ± 2.2	2.0	
COc1cc(-n2cc(CCCCN)nn2)ccc1-c1nc(CCc2ccc(-c3ccccc3)cc2)cs1.O=C(O)C(F)(F)F [12k]	16.1 ± 0.7	26.8 ± 5.7	ND/1.9	4 ± 0.2		7.4 ± 0.6		
N#Cc1ccc(-n2cc(CCCCN)nn2)cc1OCCN1CCNC1=O [compound 14]	> 75	> 75						
CC(C)(C)Cc1csc(-c2ccc(-n3cc(CCCCN)nn3)cc2OCCN2CCNC2=O)n1.O=C(O)C(F)(F)F [12m]	> 75	24.1 ± 1.4	1.8	25.2 ± 0.5	42.6 ± 3.9	44.9 ± 1.3	1.0	
NCCCCc1cn(-c2ccc(-c3nc(-c4ccc(-c5ccccc5)cc4)c(-c4ccccc4)s3)c(OCCN3CCNC3=O)c2)nn1.O=C(O)C(F)(F)F [19b, 1-(2-(5-(4-(4-Ammoniobutyl)-1H-1,2,3-triazol-1-yl)-2-(4-([1,1′-biphenyl]-4-yl)-5-phenylthiazol-2-yl)phenoxy)ethyl)imidazolidin-2-one 2,2,2-Trifluoroacetate]	11.3 ± 0.2	18.4 ± 3.9	ND/1.8	9.4 ± 0.5		17.3 ± 0.1		< 10
NCCCCc1cn(-c2ccc(-c3nc(Cc4ccccc4)cs3)c(OCCN3CCNC3=O)c2)nn1 [12o]				> 75	> 75	67.9 ± 1.5		
NCCCCc1cn(-c2ccc(-c3nc(CCc4ccc(Oc5ccccc5)cc4)c(-c4ccccc4)s3)c(OCCN3CCNC3=O)c2)nn1.O=C(O)C(F)(F)F [19e, 1-(2-(2-(4-(2-([4-Phenyloxyphenyl]-1-yl)ethyl)-5-phenyl-thiazol-2-yl)-5-(4-(4-ammoniobutyl)-1H-1,2,3-triazol-1-yl)phenoxy)ethyl)imidazolidin-2-one 2,2,2-Trifluoroacetate]	6.7 ± 1	19.3 ± 3.7	ND/<1	8.4 ± 0.1		6.6 ± 0.6		< 10
CCCCc1cn(-c2ccc(-c3nc(CCc4ccc(-c5ccccc5)cc4)cs3)c(OCCN3CCNC3=O)c2)nn1 [12f]	> 75	> 75						
NCCCCc1cn(-c2ccc(-c3nc(CCc4ccc(-c5ccccc5)cc4)c(-c4ccccc4)s3)c(OCCN3CCNC3=O)c2)nn1.O=C(O)C(F)(F)F [19d, 1-(2-(2-(4-(2-([1,1′-Biphenyl]-4-yl)ethyl)-5-phenyl-thiazol-2-yl)-5-(4-(4-ammoniobutyl)-1H-1,2,3-triazol-1-yl)phenoxy)ethyl)imidazolidin-2-one 2,2,2-Trifluoroacetate]	5.7 ± 0.5	19.8 ± 2.3	ND/1.3	9.1 ± 0.2		12.1 ± 0.1		< 10
